{"source": "patent US20130064812A1", "about": "“COMBINATION THERAPIES FOR HEMATOLOGIC MALIGNANCIES” (Gilead Calistoga LLC, priority 2011, published 2013)", "key": {"[1]": {"target": "CIIbeta (Homo sapiens, UniProt O00750)", "sequence (O00750 whole entry)": "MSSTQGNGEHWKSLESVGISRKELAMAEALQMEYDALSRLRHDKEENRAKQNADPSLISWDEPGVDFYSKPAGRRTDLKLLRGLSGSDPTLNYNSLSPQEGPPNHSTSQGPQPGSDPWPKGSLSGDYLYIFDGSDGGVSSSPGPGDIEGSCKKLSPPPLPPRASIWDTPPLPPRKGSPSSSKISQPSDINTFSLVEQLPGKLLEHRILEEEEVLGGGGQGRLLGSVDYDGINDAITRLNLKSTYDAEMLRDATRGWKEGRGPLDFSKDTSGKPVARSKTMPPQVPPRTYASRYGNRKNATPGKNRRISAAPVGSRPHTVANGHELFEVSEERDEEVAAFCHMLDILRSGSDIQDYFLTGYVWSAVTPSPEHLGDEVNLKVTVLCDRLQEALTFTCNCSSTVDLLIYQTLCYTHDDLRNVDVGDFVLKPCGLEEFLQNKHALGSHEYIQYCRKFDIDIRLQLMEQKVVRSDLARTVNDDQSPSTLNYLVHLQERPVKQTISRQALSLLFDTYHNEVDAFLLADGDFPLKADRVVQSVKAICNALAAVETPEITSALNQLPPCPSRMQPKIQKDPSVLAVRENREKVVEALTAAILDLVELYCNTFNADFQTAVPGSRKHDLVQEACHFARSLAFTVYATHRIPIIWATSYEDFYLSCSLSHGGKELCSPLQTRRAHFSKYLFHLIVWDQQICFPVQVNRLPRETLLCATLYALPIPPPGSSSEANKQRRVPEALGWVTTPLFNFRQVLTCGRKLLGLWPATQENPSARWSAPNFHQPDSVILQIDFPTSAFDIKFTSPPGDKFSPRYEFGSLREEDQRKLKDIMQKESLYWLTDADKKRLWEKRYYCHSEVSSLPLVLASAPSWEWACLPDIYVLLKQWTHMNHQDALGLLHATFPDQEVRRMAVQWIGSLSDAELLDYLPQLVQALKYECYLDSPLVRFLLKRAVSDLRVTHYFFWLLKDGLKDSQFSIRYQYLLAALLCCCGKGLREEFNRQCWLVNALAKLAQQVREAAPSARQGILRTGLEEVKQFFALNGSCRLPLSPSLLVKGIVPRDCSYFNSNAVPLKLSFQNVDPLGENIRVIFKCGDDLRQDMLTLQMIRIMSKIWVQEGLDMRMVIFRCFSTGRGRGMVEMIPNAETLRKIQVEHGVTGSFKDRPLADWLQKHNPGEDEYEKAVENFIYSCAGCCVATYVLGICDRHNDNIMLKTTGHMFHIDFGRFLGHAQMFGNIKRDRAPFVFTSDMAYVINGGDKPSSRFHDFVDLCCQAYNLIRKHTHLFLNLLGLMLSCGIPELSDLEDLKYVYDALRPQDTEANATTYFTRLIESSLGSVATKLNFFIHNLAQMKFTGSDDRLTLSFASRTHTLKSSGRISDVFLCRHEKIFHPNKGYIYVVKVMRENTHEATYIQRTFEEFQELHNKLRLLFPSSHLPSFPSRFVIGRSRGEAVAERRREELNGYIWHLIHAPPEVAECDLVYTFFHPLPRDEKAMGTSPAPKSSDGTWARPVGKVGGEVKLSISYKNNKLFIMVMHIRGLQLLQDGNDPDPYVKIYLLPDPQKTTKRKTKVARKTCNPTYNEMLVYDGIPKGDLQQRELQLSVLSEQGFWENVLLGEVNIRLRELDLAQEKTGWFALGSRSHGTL", "test": "InvitroGen Adapta kinase assay, CIIbeta", "assay_type": "biochemical"}, "[2]": {"target": "mTOR (Homo sapiens, UniProt P42345)", "test": "InvitroGen Adapta kinase assay, mTOR", "assay_type": "biochemical"}, "[3]": {"target": "PIP5Kβ (Homo sapiens, UniProt O14986)", "sequence (O14986 whole entry)": "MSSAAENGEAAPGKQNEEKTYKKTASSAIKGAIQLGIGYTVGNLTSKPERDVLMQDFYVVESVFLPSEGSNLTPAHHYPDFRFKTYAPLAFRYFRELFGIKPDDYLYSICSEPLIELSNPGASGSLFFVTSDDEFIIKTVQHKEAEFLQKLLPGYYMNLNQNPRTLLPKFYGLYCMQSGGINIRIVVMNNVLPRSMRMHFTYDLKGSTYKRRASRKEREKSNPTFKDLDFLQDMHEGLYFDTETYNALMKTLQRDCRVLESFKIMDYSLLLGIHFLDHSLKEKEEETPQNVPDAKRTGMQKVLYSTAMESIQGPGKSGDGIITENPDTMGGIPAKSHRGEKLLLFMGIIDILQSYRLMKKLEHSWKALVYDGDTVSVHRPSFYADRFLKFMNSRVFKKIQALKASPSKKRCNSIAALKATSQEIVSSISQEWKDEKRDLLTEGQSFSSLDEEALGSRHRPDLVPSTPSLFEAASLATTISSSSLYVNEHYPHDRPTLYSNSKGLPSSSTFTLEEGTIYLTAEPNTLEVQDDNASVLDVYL", "test": "InvitroGen Adapta kinase assay, PIP5Kβ", "assay_type": "biochemical", "details": "Other Phosphoinositide kinases; head prints no unit"}, "[4]": {"tested_on": "LB cells", "test": "MM cell growth with IGF-1 or IL-6 (MTT)", "assay_type": "cell-based, human", "details": "0.625 μM-[…], 48 h, with IL-6 or IGF-1", "protocol": "LB cells ([…]) were cultured for 48 h with control media; with the compound of formula I, in the presence or absence of either IL-6 or IGF-1. […] Chemicon International) dye absorbance. Cells were pulsed with 10 μL of 5 mg/mL MTT to each well for the last 4 hours of 48-hour cultures, followed by 100 μL isopropanol containing 0.04 N HCl."}, "[5]": {"tested_on": "T-ALL and B-ALL leukemic cell lines", "test": "ALL cell lines: AlamarBlue viability and Akt phosphorylation", "assay_type": "cell-based", "details": "for cellular viability in ALL cell lines: 48 hours", "protocol": "Viability assays of cell lines were performed using the AlamarBlue assay (Invitrogen). Cells (1×10^6 per well) in a volume of 100 μL were placed in a 96-well flat-bottom plate and the compound of formula I (100 μL per well at 2× final concentration) or medium alone was added to the plates. All were performed in quadruplicate. Cells were incubated for fixed times (48 hours). After the incubation, 10 μL AlamarBlue® was added to each well. Cells were incubated for 4 hours and the optical density at 530-560 nm was obtained using a SpectraMax® M5 plate reader 2001. Cell viability was expressed as a percentage of absorption between treated cells/control sample."}, "[6]": {"tested_on": "CCRF-SB cells", "test": "Cell cycle FACS analysis (propidium iodide)", "assay_type": "cell-based", "protocol": "Representative fluorescence-activated cell sorting (FACS) analysis of propidium iodide-stained CCRF-SB cells under normal growth conditions, and growth in the presence of the compound of formula I. The average percentage of cells in G0-G1, S, and G2-M phases is calculated in the table below the histographs."}, "[7]": {"tested_on": "caspase 3 and PARP", "test": "Cleavage of caspase 3 and PARP (immunoblot, Meso Scale plates)", "assay_type": "cell-based", "details": "5 or 10 μM, 24 hrs", "protocol": "FIGS. […]\nThereafter, cells were lysed and sized-fractionated and immunoblotted with antibody directed against FLIP, FIG. 29. Additionally, whole cell lysates were added to MDS (Meso Scale Diagnostics) multi-spot 96-well 4 spot plates coated with Total caspase-3, cleaved caspase-3, cleaved PARP, and BSA. Proteins were detected with antibodies labeled with SULFO-TAG reagent and quantified."}, "[8]": {"tested_on": "patient AML cells", "test": "Phospho-Akt production in patient AML cells", "assay_type": "cell-based, human", "details": "0.1, 1.0, 10 μM", "source_text": "PI3Kδ is implicated in signaling in AML patient cells."}, "[9]": {"tested_on": "INA-6 cells", "test": "Cleavage of caspases and PARP in INA-6 cells (western blot)", "assay_type": "cell-based, human", "details": "INA-6, 0-5 μM, 120 h", "source_text": "Whole-cell lysates were subjected to sodium dodecyl sulfate-polyacrylamide gel electrophoresis (SDS-PAGE) separation, transferred to Pure Nitrocellulose membranes (Bio-Rad Laboratories, Hercules, Calif.), and immunoblotted with anti-AKT, phospho(p)-AKT (Ser473, Thr 308), ERK1/2, P-ERK1/2, P-PDK1, STAT, P-STAT, P-FKRHL, P-70S6K, LC3, and PI3K/p110α Abs (Cell Signaling Danvers, Mass.); anti-p110β, PI3K/p110δ, Glyceraldehyde 3-phosphate dehydrogenase (GAPDH), α-tubulin, and actin Abs (Santa Cruz Biotechnology, CA); and anti-p110γ Ab (Alexis, San Diego, Calif.): and anti-LC3 Ab (Abgent, San Diego, Calif.).\nTotal cell lysates were subjected to immunoblotting using anti-caspase-3, -8, -9, PARP, and α-tubulin Abs. FL indicates full-length protein, and CL indicates cleaved protein."}, "[10]": {"tested_on": "INA-6 and LB MM cells", "test": "Autophagy / AVO development in MM cells", "assay_type": "cell-based, human", "protocol": "To detect and quantify AVOs in compound 1 or 3MA-treated cells, vital staining was performed for 15 min with acridine orange at a final concentration of 1 μg/ml. Samples were examined under a fluorescence microscope.\nAutophagosome formation was defined by the accumulation of LC3; arrows indicate autophagosomes, FIG. 33A.\nGAPDH served as a loading control."}, "[11]": {"tested_on": "LB and INA-6 cells", "test": "MM cell growth with IL-6 or IGF-1 ([3H]-thymidine)", "assay_type": "cell-based, human", "details": "5.0 or 10 μM; IL-6 1 and 10 ng/ml, IGF-1 10 and 100 ng/mL", "protocol": "DNA synthesis was determined by measuring [3H]-thymidine incorporation during the last 8 h of 72 h cultures. Data represent means (±SD) of triplicate cultures."}, "[12]": {"tested_on": "FL cell lines", "test": "PI3K signaling and apoptosis in follicular lymphoma cell lines", "assay_type": "cell-based"}, "[13]": {"tested_on": "primary MCL cells and MCL cell lines", "test": "PI3K signaling in primary MCL cells and MCL cell lines", "assay_type": "cell-based, human"}, "[14]": {"tested_on": "previously treated B-cell malignancies (iNHL, CLL)", "test": "Clinical study, combination with rituximab or bendamustine, 49 patients (Example 42)", "details": "human, in vivo", "source_text": "49 patients were enrolled in the study, including 27 with iNHL and 22 with CLL. At the baseline, patients had adverse prognostic characteristics, including older age, bulky adenopathy, and refractory disease. All patients had received ≧1 prior treatment regimen and some had received as many 9 prior regimens. Prior treatment included rituximab, alkylating agents and/or fludarabine; the majority of patients with iNHL had been treated with prior anthracycline-containing therapy. Follow-up was early in many patients, with durations of therapy ranging from 1 to 12 cycles.\nAll patients received the compound of formula I, either 100 mg orally twice per day (BID) or 150 mg orally twice per day (BID) for as long as the patient was benefiting. Patients also received either rituximab 375 mg/m^2 administered weekly for 8 weeks, starting on Day 1 of Cycle 1, or bendamustine 90 mg/m^2 administered on Days 1 and 2 of each cycle for 6 cycles. Tumor response was evaluated according to standard criteria."}, "[15]": {"tested_on": "AKT (ser473), GSK3β (ser9)", "test": "AKT and GSK3β phosphorylation in CD19+ CLL cells with lenalidomide (immunoblot)", "details": "0.5 μM lenalidomide and/or 1 or 10 μM compound, 48 hours", "quoted_text": "Immunoblots were performed.\nAKT phosphorylation at ser473 was assessed by immunoblot.\nGSK3β phosphorylation at ser9 was assessed by immunoblot. Results are shown from one of four experiments.\nCD19+ cells from CLL patients (N=3) were transfected with siRNA targeted to PI3K-δ, PI3K-γ or a nonsense and then incubated with or without 0.5 μM lenalidomide for 48 hours. AKT phosphorylation at ser473 was assessed by immunoblot. Results are shown from one of three experiments."}}, "data": [{"compound": "CC[C@H](Nc1ncnc2[nH]cnc12)c1nc2cccc(F)c2c(=O)n1-c1ccccc1", "note": "[Compound I, 5-fluoro-3-phenyl-2-[1-(9H-purin-6-ylamino)-propyl]-3H-quinazolin-4-one]", "values": [{"measurement": "IC50", "setting": "[1]", "value": "> 1000", "unit": "nM"}, {"measurement": "IC50", "setting": "[2]", "value": "> 1000", "unit": "nM"}, {"measurement": "IC50", "setting": "[3]", "value": "> 1000", "unit": "nM"}, {"measurement": "MM cell growth", "setting": "[4]", "value": "inhibits MM cell growth even in the presence of cell growth stimulatory cytokines"}, {"measurement": "Akt phosphorylation in ALL cell lines", "setting": "[5]", "value": "reduction in Akt phosphorylation"}, {"measurement": "cellular viability in ALL cell lines", "setting": "[5]", "value": "significant reduction in cell viability in all six cell lines"}, {"measurement": "cellular viability in ALL cell lines", "setting": "[5]; listed as compound I", "value": "substantial reduction in cellular viability"}, {"measurement": "cell cycle", "setting": "[6]", "value": "G0/G1 cell cycle arrest"}, {"measurement": "cleavage of caspase 3 and PARP", "setting": "[7]", "value": "dose dependent response in the cleavage of caspase 3 and PARP"}, {"measurement": "phospho-Akt production in patient AML cells", "setting": "[8]", "value": "reduces phospho-Akt production in patient AML cells"}, {"measurement": "cleavage of caspases and PARP", "setting": "[9]", "value": "Significantly increased cleavage of caspase-8, caspase-9, caspase-3, and PARP"}, {"measurement": "LC3 staining", "setting": "[10]; 5 μM, 6 h, INA-6 and LB", "value": "markedly increased LC 3 staining"}, {"measurement": "LC3-II and Beclin1 protein", "setting": "[10]; INA-6, 6 h", "value": "markedly increased LC3-II and Beclin1 protein"}, {"measurement": "acidic vesicular organelle (AVO) development", "setting": "[10]; acridine orange staining, LB and INA-6", "value": "development of AVOs"}, {"measurement": "growth inhibition in the presence of IL-6 or IGF-1", "setting": "[11]", "value": "Neither IL-6 nor IGF-1 protected against the growth inhibition"}, {"measurement": "pAkt, Akt, pS6 and S6 in FL cell lines", "setting": "[12]", "value": "reduction in the production of pAkt, Akt, pS6 and S6"}, {"measurement": "cleavage of PARP and Caspase-3 in FL cell lines", "setting": "[12]; 24 hours, 0.1 μM and 0.5 μM", "value": "Cleavage of PARP and Caspase-3 is observed"}, {"measurement": "pAkt in MCL lines exposed to survival factors", "setting": "[13]", "value": "significant reduction of pAkt"}, {"measurement": "constitutive PI3K signaling in primary MCL cells", "setting": "[13]; two patients, 0.1 μM or 1 μM", "value": "block constitutive PI3K signaling in primary MCL cells of two patients in a dose dependent manner"}, {"measurement": "dose-limiting toxicities", "setting": "[14]", "value": "No dose-limiting toxicities related to the compound of formula I were observed"}, {"measurement": "AKT activation / phosphorylation (ser473) with lenalidomide", "setting": "[15]", "value": "resulted in prevention of PI3K activity"}, {"measurement": "GSK3β phosphorylation (ser9)", "setting": "[15]; N=4", "value": "preventable by co-treatment with the compound of formula I"}]}]}
